We go through eight compounds from patent US20110144160A1, “Antagonists of Prostaglandin D2 Receptors” (Amira Pharmaceuticals, Inc., priority 2008, published 2011).

One assay deals with T1, human DP2 receptor (Homo sapiens, UniProt Q9Y5Y4).
T1 construct: expressed in transfected cells
T1 sequence (Q9Y5Y4 1-395): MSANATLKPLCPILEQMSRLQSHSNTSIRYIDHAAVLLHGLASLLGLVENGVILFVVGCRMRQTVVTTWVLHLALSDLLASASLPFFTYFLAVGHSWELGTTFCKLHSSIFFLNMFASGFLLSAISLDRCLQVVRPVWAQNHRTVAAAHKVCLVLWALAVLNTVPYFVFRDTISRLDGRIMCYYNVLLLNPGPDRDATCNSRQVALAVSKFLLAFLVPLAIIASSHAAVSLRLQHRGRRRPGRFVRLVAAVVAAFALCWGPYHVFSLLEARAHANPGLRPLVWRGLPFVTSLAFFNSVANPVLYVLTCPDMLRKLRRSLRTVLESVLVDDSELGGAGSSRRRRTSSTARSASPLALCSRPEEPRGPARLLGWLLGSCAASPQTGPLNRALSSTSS
Kind of assay: DP2/CRTH2 binding assay ([3H]PGD2 radioligand). To be noted: membranes of HEK293 cells expressing recombinant human DP2, 1 nM [3H]PGD2; read-out: hDP2. The procedure, abridged:
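HEK293 membranes with stable recombinant human DP2, incubated with 1 nM [3H]PGD2 and compound 60 min at room temperature in pH 7.4 HEPES/MnCl2/EDTA buffer, with or without 0.2% human serum albumin.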

Another assay concerns the target T2, human DP1 receptor (Homo sapiens, UniProt Q13258).
T2 construct: tissue Biological Specialty Corporation; host or cells: human platelets, membrane preparation
T2 sequence (Q13258 1-359): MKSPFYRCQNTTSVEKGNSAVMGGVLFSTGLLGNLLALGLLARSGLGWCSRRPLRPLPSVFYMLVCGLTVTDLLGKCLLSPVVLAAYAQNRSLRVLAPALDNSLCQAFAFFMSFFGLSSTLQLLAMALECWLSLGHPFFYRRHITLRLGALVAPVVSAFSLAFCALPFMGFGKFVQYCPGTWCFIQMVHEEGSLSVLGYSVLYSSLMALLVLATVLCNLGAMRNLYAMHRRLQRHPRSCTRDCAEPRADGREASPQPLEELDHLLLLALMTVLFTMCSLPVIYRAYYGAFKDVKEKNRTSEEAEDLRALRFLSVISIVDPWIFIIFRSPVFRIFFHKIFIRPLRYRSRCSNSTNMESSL
The assay is described as follows: DP1 binding assay ([3H]BWA868C radioligand). The note with it: human platelet membranes, 2 nM [3H]BWA868C; read-out: hDP1. The procedure:
The ability of a compound to bind to the human DP1 receptor was evaluated via a radioligand membrane binding assay using the DP1 selective synthetic ligand [^3H]BWA868C. Packed human platelets (Biological Specialty Corporation), were resuspended in 6 volumes of Hepes/HBSS buffer (10 mM Hepes, 1 mM DTT in Hanks Balanced Salt Solution (HBSS), lysed and centrifuged at 75,000×g to pellet the membranes. Membranes were resuspended in Hepes/HBSS buffer to approximately 12 mg protein/ml. Membranes (20 μg protein/well) are incubated in 96-well plates with 2 nM [^3H]BWA868C and test compound in Assay Buffer (50 mM Hepes, 10 mM MnCl2, 1 mM EDTA, plus or minus 0.2% human serum albumin, pH 7.4) for 60 minutes at room temperature. The reactions are terminated by rapid filtration through Whatman GF/C glass fibre filter plates. The filter plates were pre-soaked in 0.33% polethylenimine for 30 minutes at room temperature then washed in Wash Buffer (50 mM Hepes, 0.5 M NaCl pH 7.4) prior to harvesting. After harvesting, the filter plates are washed 3 times with 1 ml cold Wash Buffer then dried. Scintillant is then added to the plates and the radioactivity retained on the filters is determined on a Packard TopCount (Perkin Elmer). Specific binding is determined as total radioactive binding minus non-specific binding in the presence of 10 μM BW A868C. IC50s were determined using GraphPad prism analysis of drug titration curves.

For the compound `COc1ccc(CC(=O)O)cc1Oc1ccc(NC(=O)c2cccnc2)cc1CSCC(F)(F)F` [Compound 70, {4-methoxy-3-[4-[(pyridine-3-carbonyl)-amino]-2-(2,2,2-trifluoro-ethylsulfanylmethyl)-phenoxy]-phenyl}-acetic acid], the IC50 at human DP2 receptor was under 300 nM; at human DP1 receptor, 300 to 1000 nM.

With `COc1ccc(CC(=O)O)cc1Oc1ccc(NC(=O)c2ccncc2)cc1CSCC(F)(F)F` [Compound 71, {4-methoxy-3-[4-[(pyridine-4-carbonyl)-amino]-2-(2,2,2-trifluoro-ethylsulfanylmethyl)-phenoxy]-phenyl}-acetic acid], the IC50 was under 300 nM at human DP2 receptor and 300 to 1000 nM at human DP1 receptor.

With `COc1ccc(CC(=O)O)cc1Oc1ccc(NC(=O)C(C)(C)C)cc1C[S+]([O-])C(C)(C)C` (stereo not shown) [Compound 73, {3-[4-(2,2-Dimethyl-propionylamino)-2-(2-methyl-propane-2-sulfinylmethyl)-phenoxy]-4-methoxy-phenyl}-acetic acid], the IC50 on human DP2 receptor and at human DP1 receptor was under 300 nM each time.

Regarding `COc1ccc(CC(=O)O)cc1Oc1ccc(NC(=O)C(C)(C)C)cc1CS(=O)(=O)C(C)(C)C` [Compound 74, {3-[4-(2,2-Dimethyl-propionylamino)-2-(2-methyl-propane-2-sulfonylmethyl)-phenoxy]-4-methoxy-phenyl}-acetic acid], the IC50 on human DP2 receptor and on human DP1 receptor was under 300 nM each time.

Turning to `CC(C)(C)SCc1cc(NC(=O)C(C)(C)C)ccc1Oc1cc(CC(=O)O)ccc1O` [Compound 75, {3-[2-tert-Butylsulfanylmethyl-4-(2,2-dimethyl-propionylamino)-phenoxy]-4-hydroxy-phenyl}-acetic acid], the IC50 at human DP2 receptor and at human DP1 receptor was under 300 nM in each case.

Turning to `CC(C)(C)C(=O)Nc1ccc(Oc2cc(CC(=O)O)ccc2O)c(C[S+]([O-])C(C)(C)C)c1` (stereo not shown) [Compound 76, {3-[4-(2,2-Dimethyl-propionylamino)-2-(2-methyl-propane-2-sulfinylmethyl)-phenoxy]-4-hydroxy-phenyl}-acetic acid], the IC50 on human DP2 receptor and on human DP1 receptor was under 300 nM throughout.

In the case of `COc1ccc(CC(=O)O[C@@H]2O[C@@H](C(=O)O)[C@H](O)[C@@H](O)[C@@H]2O)cc1Oc1ccc(NC(=O)C(C)(C)C)cc1CSC(C)(C)C` [Compound 77, (2R,3R,4R,5S,6S)-6-(2-{3-[2-tert-Butylsulfanylmethyl-4-(2,2-dimethyl-propionylamino)-phenoxy]-4-methoxy-phenyl}-acetoxy)-3,4,5-trihydroxy-tetrahydro-pyran-2-carboxylic acid], the IC50 at human DP2 receptor and on human DP1 receptor was under 300 nM in each case.

Turning to `O=C(O)CCn1c2c(c3ccccc31)C[C@H](NS(=O)(=O)c1ccc(F)cc1)CC2` [Ramatroban, reference compound], the IC50 was 300 to 1000 nM at human DP2 receptor and over 1000 nM at human DP1 receptor.
